Experimental data: patent US8987167B2, “Low volatile amine salts of anionic pesticides” (BASF SE, priority 2009, dated 2015)
Like-named read-outs stand apart in the source and are kept apart here.

Assays:
[1] = Volatility determined by TGA (thermal gravimetric analysis); type: physicochemical
Procedure: The volatility of the aqueous solutions of dicamba (480 g/l) or 2,4-D (250 g/l) as prepared in Example 1 was determined by analyzing the wt % loss per minute as calculated by the slope between 400 min and 1200 min of a TGA (thermal gravimetric analysis) analysis. The measurement conditions on a TA Instrument TGA Q50 were as follows: Pan type: Platinum; sample size 25 μl leveling uniformly on pan surface, balance purge flow 40 ml/min; sample purge flow 60 ml/min; temperature procedure: Start at 20° C., ramp 10° C./min to 100° C., then isothermal for 1200 min.
The volatility of the aqueous solutions of glyphosate salts as prepared in Example 6 was determined by analyzing the wt % loss per minute as described in Example 3.

[2] = 30% humidity; for Volatility after 2 weeks (wt % loss) / Volatility after 4 weeks (wt % loss): Petri dish, 480 g/l solution diluted 1:50, 50° C., forced air flow, loss of dicamba acid by HPLC
Procedure: A dicamba sample of the aqueous solutions of dicamba (480 g/l) as prepared in Example 1 (Table 1, entry 2) was diluted with distilled water in a ratio of 1:50. To help spreading of the samples uniformly on the surface of the plate, Silwet L-77 was added (0.1 wt %). A total of 300 μl of this diluted sample was applied per Petri dish (diameter 5 cm). The dishes were kept at an environment chamber (Barnstead Environ-Cab Lab-line 680A) with forced air flow (air vent out) up to one month at 50° C. and 30% humidity. Afterwards the plates were extracted with acetic acid/methanol and the pesticide quantified by HPLC (Columbus C18 column) to determine the volatile loss of dicamba acid.

[3] = pH 7
[4] = 2,4-D salts, 250 g/l, TGA, normed, dimethylamine salt = 100.0
[5] = 2,4-D salts, aqueous solution 250 g/l, TGA isothermal at 100° C., slope between 400 min and 1200 min
[6] = Dicamba salts, 480 g/l, TGA, normalized, dicamba acid = 100.0
[7] = Dicamba salts, aqueous solution 480 g/l, TGA isothermal at 100° C., slope between 400 min and 1200 min
[8] = soybean injury (epinasty and stunting) 14 days after 24 h vapour exposure to Petri dishes treated with 4480 g active ingredient per ha, normalized to 30% for the 2-(-aminoethoxy)ethanol salt
[9] = Glyphosate salts, aqueous solution 480 g/l, TGA

Procedure for soybean plants: Soybeans were grown in a 3 inch (7.6 cm) pots for approximately 10 days until the first trifoliate is unfolded (not fully expanded). […] Immediately after treatment, eight Petri dishes and two soybean plants were placed in a tray (25×51 cm) and covered with a plastic dome (25×51×20 cm). The covered trays were placed in a greenhouse with temperature maintained at 25-35° C. and 50-80% humidity. After 24 h of exposure, the plastic dome was removed.

CN(CCCN)CCCN.COc1c(Cl)ccc(Cl)c1C(=O)O
Volatility (normalized) [1]: 0.5 | Volatility (wt % loss per min) [1]: 0.0003 wt % loss per min | Injury (%) (soybean plants; in vivo): 7%

CN(CCCN)CCCN.O=C(O)CNCP(=O)(O)O
Volatility (wt % loss per min) [1]: 0.002 wt % loss per min

NCCNCCO.O=C(O)COc1ccc(Cl)cc1Cl [2,4-D salt: Aminoethylethanolamine]
Volatility (normed) [1, 4]: 35.7 | Volatility (wt % loss per min) [1, 5]: 0.002 wt % loss per min

NCCNCCN.O=C(O)COc1ccc(Cl)cc1Cl [2,4-D salt: Diethylenetriamine]
Volatility (normed) [1, 4]: 13.7 | Volatility (wt % loss per min) [1, 5]: 0.0008 wt % loss per min

CNC.O=C(O)COc1ccc(Cl)cc1Cl [2,4-D salt: Dimethylamine, reference compound]
Volatility (normed) [1]: 100.0 | Volatility (wt % loss per min) [1]: 0.006 wt % loss per min

CN(C)CCCNCCCN(C)C.O=C(O)COc1ccc(Cl)cc1Cl [2,4-D salt: Jeffcat ® Z-130]
Volatility (normed) [1, 4]: 14.8 | Volatility (wt % loss per min) [1, 5]: 0.0008 wt % loss per min

COc1c(Cl)ccc(Cl)c1C(=O)O [Dicamba acid, dicamba, reference compound]
Volatility (normalized) [1, 6]: 100.0 | Volatility (wt % loss per min) [1, 7]: 0.060 wt % loss per min | Injury (%) (soybean plants; [8]): 67%

COc1c(Cl)ccc(Cl)c1C(=O)O.NCCOCCO [Dicamba salt: 2-(-Aminoethoxy)ethanol, dicamba 2-(-Aminoethoxy)ethanol salt, reference compound]
Volatility (normalized) [1, 6]: 5.4 | Volatility (wt % loss per min) [1, 7]: 0.0032 wt % loss per min | Volatility after 2 weeks (wt % loss) [2]: 29.3 wt % loss | Volatility after 4 weeks (wt % loss) [2]: 57.0 wt % loss | Injury (%) (soybean plants; [8]): 30%

COc1c(Cl)ccc(Cl)c1C(=O)O.NCCNCCO [Dicamba salt: Aminoethylethanolamine, aminoethylethanolamine salt of dicamba]
Volatility (normalized) [1, 6]: 3.1 | Volatility (wt % loss per min) [1, 7]: 0.0018 wt % loss per min | volatility compared to commercial dicamba salt formulations (Petri dish) ([2]; 50° C., up to one month): reduced volatility compared to commercial dicamba salt formulations | Volatility after 2 weeks (wt % loss) [2]: 6.2 wt % loss | Volatility after 4 weeks (wt % loss) [2]: 20.6 wt % loss | Injury (%) (soybean plants; [8]): 5%

COc1c(Cl)ccc(Cl)c1C(=O)O.NCCN1CCNCC1 [Dicamba salt: Aminoethylpiperazine]
Volatility (normalized) [1, 6]: 0.4 | Volatility (wt % loss per min) [1, 7]: 0.0002 wt % loss per min | Injury (%) (soybean plants; [8]): 19%

COc1c(Cl)ccc(Cl)c1C(=O)O.NCCNCCN [Dicamba salt: Diethylenetriamine]
Volatility (normalized) [1, 6]: 0.7 | Volatility (wt % loss per min) [1, 7]: 0.0004 wt % loss per min | Injury (%) (soybean plants; [8]): 14%

CNC.COc1c(Cl)ccc(Cl)c1C(=O)O [Dicamba salt: Dimethylamine, dicamba dimethylamine salt, reference compound]
Volatility (normalized) [1]: 17.8 | Volatility (wt % loss per min) [1]: 0.011 wt % loss per min | Volatility after 2 weeks (wt % loss) [2]: 98.7 wt % loss | Volatility after 4 weeks (wt % loss) [2]: 100 wt % loss | Injury (%) (soybean plants; in vivo): 48%

CC1(C)CC(N)CC(C)(CN)C1.COc1c(Cl)ccc(Cl)c1C(=O)O [Dicamba salt: Isophorone diamine]
Volatility (normalized) [1]: 0.4 | Volatility (wt % loss per min) [1, 7]: 0.0002 wt % loss per min | Injury (%) (soybean plants; [8]): 19%

CN(C)CCCN(C)CCCN(C)C.COc1c(Cl)ccc(Cl)c1C(=O)O [Dicamba salt: Jeffcat ZR-40]
Volatility (normalized) [1, 6]: 5.0 | Volatility (wt % loss per min) [1, 7]: 0.0030 wt % loss per min

CN(C)CCCNCCCN(C)C.COc1c(Cl)ccc(Cl)c1C(=O)O [Dicamba salt: Jeffcat ® Z-130]
Volatility (normalized) [1, 6]: 2.9 | Volatility (wt % loss per min) [1, 7]: 0.0017 wt % loss per min | Injury (%) (soybean plants; [8]): 5%

NCCN1CCNCC1.O=C(O)CNCP(=O)(O)O [Glyphosate salt: Aminoethylpiperazine]
Volatility (wt % loss per min) [1, 9]: 0.002 wt % loss per min

NCCNCCN.O=C(O)CNCP(=O)(O)O [Glyphosate salt: Diethylenetriamine, glyphosate diethylenetriamine salt, reference compound]
Volatility (wt % loss per min) [1, 9]: 0.002 wt % loss per min

CC1(C)CC(N)CC(C)(CN)C1.O=C(O)CNCP(=O)(O)O (stereo not drawn) [Glyphosate salt: Isophorone diamine]
Volatility (wt % loss per min) [1, 9]: 0.002 wt % loss per min

COc1c(Cl)ccc(Cl)c1C(=O)O.NCCCN1CCOCC1 [aminopropylmorpholine (APM) salt of dicamba, reference compound]
Volatility expected for a concentration of 480 g/l ([1]; dicamba salt, 480 g/l (solution could not be prepared), compared with 0.0021 wt % loss per min at 300 g/l): expected to be higher | Volatility (wt % loss per min) ([1]; dicamba salt, aqueous solution 300 g/l, TGA): 0.0021 wt % loss per min | solubility in water [3]: ≤ 300 mg/mL
